Data reported in ChEMBL document CHEMBL1139792, “Correlation of carboxylic acid pKa to protein binding and antibacterial activity of a novel class of bacterial translation inhibitors” (Bioorg Med Chem Lett, 2007).
In brackets after ≈: the same amount, converted by molar mass. Activity calls are given as the source filed them. The rule behind the calls is not given here.

Key:
[1] = system: Staphylococcus aureus; test: Antibacterial activity against Staphylococcus aureus UC9218; type: functional
[2] = system: Staphylococcus aureus; test: Antibacterial activity against Staphylococcus aureus UC9218 in presence of 10% human serum; type: functional
[3] = system: Staphylococcus aureus; test: Antibacterial activity against Staphylococcus aureus UC9218 in presence of 5% human serum; type: functional
[4] = Acid dissociation constant, pKa by pressure-assisted capillary electrophoresis method; type: physicochemical
[5] = molecular target: T1, Albumin (Homo sapiens, UniProt P02768); test: Displacement of fluorescent dansyl sarcosine from human serum albumin site II on subdomain IIIA
T1 sequence (P02768 whole entry): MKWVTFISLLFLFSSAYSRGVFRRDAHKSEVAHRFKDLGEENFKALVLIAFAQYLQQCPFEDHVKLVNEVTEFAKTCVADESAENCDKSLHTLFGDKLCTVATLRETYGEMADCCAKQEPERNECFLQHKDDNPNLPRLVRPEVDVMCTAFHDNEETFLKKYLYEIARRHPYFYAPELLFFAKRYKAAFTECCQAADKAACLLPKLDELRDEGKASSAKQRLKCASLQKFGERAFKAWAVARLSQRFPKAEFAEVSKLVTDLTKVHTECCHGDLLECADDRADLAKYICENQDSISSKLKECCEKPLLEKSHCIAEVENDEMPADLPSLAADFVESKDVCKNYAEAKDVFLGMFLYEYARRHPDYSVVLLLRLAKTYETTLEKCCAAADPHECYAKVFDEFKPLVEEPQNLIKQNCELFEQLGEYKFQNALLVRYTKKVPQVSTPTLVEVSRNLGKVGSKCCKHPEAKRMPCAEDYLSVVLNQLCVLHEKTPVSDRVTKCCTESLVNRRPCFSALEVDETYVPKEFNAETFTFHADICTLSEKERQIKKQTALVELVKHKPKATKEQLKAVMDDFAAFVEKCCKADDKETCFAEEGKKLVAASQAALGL

[6] = system: Staphylococcus aureus; test: Antibacterial activity against Staphylococcus aureus in mouse bacteremia model; type: functional
[7] = molecular target: T1, Albumin; test: Binding to high affinity site of human serum albumin; type: ADME

| SMILES | MIC [1] | MIC [2] | MIC [3] | pKa [4] | Kd [5] | Activity [6] | Kd [7] | ED50 [6] |
| --- | --- | --- | --- | --- | --- | --- | --- | --- |
| CCCN(CCC)S(=O)(=O)c1ccc(C(=O)Nc2cc3ccccc3cc2C(=O)O)cc1 | 32 µg/mL (≈ 70.4 µM) | > 64 µg/mL | – | – | – | – | – | – |
| COc1ccc(NC(=O)c2cccc(S(=O)(=O)N3CCOCC3)c2)c(C(=O)O)c1 | > 128 µg/mL | – | > 128 µg/mL | 3.12 | 8.1 µM | – | – | – |
| N#Cc1ccc(NC(=O)c2ccc(S(=O)(=O)N3CCCC3)cc2)c(C(=O)O)c1 | 1 µg/mL (≈ 2.5 µM) | 8 µg/mL | – | – | – | inactive | – | – |
| O=C(Nc1ccc(Cl)cc1C(=O)O)c1cccc(S(=O)(=O)N2CCOCC2)c1 | 4 µg/mL (≈ 9.41 µM) | – | 32 µg/mL | 2.81 | 6.5 µM | – | – | – |
| Cc1ccc(NC(=O)c2cccc(S(=O)(=O)N3CCOCC3)c2)c(C(=O)O)c1 | > 128 µg/mL | – | > 128 µg/mL | 3.36 | 7.5 µM | – | – | – |
| O=C(Nc1ccccc1C(=O)O)c1cccc(S(=O)(=O)N2CCOCC2)c1 | > 128 µg/mL | – | > 128 µg/mL | 3.18 | 6 µM | – | – | – |
| O=C(Nc1ccc([N+](=O)[O-])cc1C(=O)O)c1cccc(S(=O)(=O)N2CCOCC2)c1 | 4 µg/mL (≈ 9.19 µM) | – | 16 µg/mL | 3.44 | 4.4 µM | – | – | – |
| O=C(Nc1ccc(F)cc1C(=O)O)c1cccc(S(=O)(=O)N2CCOCC2)c1 | 128 µg/mL (≈ 313 µM) | – | 128 µg/mL | 2.92 | 6.6 µM | – | – | – |
| N#Cc1ccc(NC(=O)c2ccc(S(=O)(=O)N3CCOCC3)cc2)c(C(=O)O)c1 | 1 µg/mL (≈ 2.41 µM) | 4 µg/mL | 2 µg/mL | 2.56 | 5.3 µM | – | 14 µM | > 200 mg/kg |
| N#Cc1ccc(NC(=O)c2cc(SCc3ccccc3)on2)c(C(=O)O)c1 | 0.125 µg/mL (≈ 0.329 µM) | 4 µg/mL | – | – | – | – | – | – |
| N#Cc1ccc(NC(=O)c2ccc(S(=O)(=O)N3CCc4cc(Cl)ccc43)cc2)c(C(=O)O)c1 | 0.125 µg/mL (≈ 0.259 µM) | 8 µg/mL | – | – | – | inactive | – | – |
| O=C(Nc1ccc(Br)cc1C(=O)O)c1cccc(S(=O)(=O)N2CCOCC2)c1 | 4 µg/mL (≈ 8.52 µM) | – | 32 µg/mL | 2.79 | 4.8 µM | – | – | – |
| O=C(Nc1ccc(Br)cc1C(=O)O)c1ccc(S(=O)(=O)N2CCc3cc(Cl)ccc32)cc1 | 0.125 µg/mL (≈ 0.233 µM) | 64 µg/mL | – | – | – | – | – | – |
